Results taken from article PMC9571170, “Exploring Active Ingredients, Beneficial Effects, and Potential Mechanism of Allium tenuissimum L. Flower for Treating T2DM Mice Based on Network Pharmacology and Gut Microbiota” (Nutrients, 2022).

Tested on: not given
Assay: not given
Parameters: method as in TCMSP database
Settings: filter condition; ref TCMSP database; cited from earlier work

For `O=c1c(O)c(-c2ccc(O)cc2)oc2cc(O)cc(O)c12` [AF−8, kaempferol], the “Oral bioavailability (OB)” value is given as at least 30%.
For `CC(C)=CCc1cc(-c2oc3cc(O)cc(O)c3c(=O)c2O)ccc1O` [AF−11, isolicoflavonol], the “Oral bioavailability (OB)” value is given as at least 30%.
In the case of `CN1[C@H]2C[C@H](OC(=O)[C@H](CO)c3ccccc3)C[C@@H]1[C@@H](O)C2` [AF−23, anisodamine], the “Oral bioavailability (OB)” value is listed as at least 30%.

Target: α−Glucosidase (from yeast)
Assay: In vitro α−glucosidase inhibitory activity assay (PNPG substrate)
Assay type: biochemical
Settings: n=3; acarbose positive control
Description: The α−glucosidase inhibitory activity assay method of A. tenuissimum flower flavonoids was slightly modified based on previous studies. A 96−well plate was used for preparing the mixture consisting of 0.1 M PBS (pH 6.8), 1.0 mg/mL sample solution, and 2 U/mL α−glucosidase, which were incubated at 37 °C for 10 min. 20 μL PNPG solution (2.5 Mm, dissolved in PBS) was added to each well to start the reaction and incubated at 37 °C. Twenty minutes later, 80 μL Na2CO3 solution (0.2 mol/L) was added to each well to terminate the reaction. The absorbance was measured at 405 nm by Tecan Infinite M200 PRO (Tecan Trading Co. Ltd., Shanghai, China). […] The inhibitory rate was calculated by the absorbance formula below:Inhibition% = [1 − (Aa − Ab) / Ac] × 100% a. 20 μL PNPG + 80 μL Na2CO3 + 20 μL PBS + 20 μL sample + 20 μL enzyme; b. 20 μL PNPG + 80 μL Na2CO3 + 40 μL PBS +20 μL sample; c. 20 μL PNPG + 80 μL Na2CO3 + 40 μL PBS + 20 μL enzyme.

`CC(=O)OCC1OC(OC2C(C)OC(Oc3c(-c4ccc(O)cc4)oc4cc(O)cc(O)c4c3=O)C(O)C2O)C(O)C(O)C1O` (centres unmarked) [AF−1, multiflorin A] and `O=c1c(OC2OC(COC3OC(CO)C(O)C(O)C3OC3OC(CO)C(O)C(O)C3O)C(O)C(O)C2O)c(-c2ccc(O)cc2)oc2cc(O)cc(O)c12` (stereo not drawn) [AF−34, kaempferol 3−O−β−D−glucopyranosyl−(1→2) −β−D−glucopyranosyl−(1→6)−β−D−glucopyranodide] are within 1.5-fold of each other in IC50: 289 ± 14 µM for the first, 335 ± 1 µM for the second.

`CC(C)=CCc1cc(-c2oc3cc(O)cc(O)c3c(=O)c2O)ccc1O` [AF−11, isolicoflavonol] and `COc1ccc(-c2oc3cc(O)cc(O)c3c(=O)c2O)cc1CC=C(C)C` [AF−38, macasiamenol B] are within 1.5-fold of each other in IC50: 176 ± 6 µM for the first, 230 ± 34 µM for the second.

Going from `COc1ccc(-c2oc3cc(OC)cc(O)c3c(=O)c2OC2OC(CO)C(O)C(O)C2O)cc1` (centres unmarked) [AF−15, kaempferol−4’,7−dimethyl−3−O−glucoside] to `COc1ccc(-c2oc3cc(O)cc(O)c3c(=O)c2OC2OC(CO)C(O)C(O)C2O)cc1O` (centres unmarked) [AF−40, tamarixin], the IC50 falls from 506 ± 1 µM to 282 ± 3 µM (1.8-fold).

`O=C(C=Cc1ccc(O)cc1)OCC1OC(Oc2c(-c3ccc(O)cc3)oc3cc(O)cc(O)c3c2=O)C(O)C(O)C1OC(=O)C=Cc1ccc(O)cc1` (stereo not drawn) [AF−33, kaempferol−3−O−β−D−4′′,6′′− di−(E)−p−coumaroyl glucoside] and `COc1cc(-c2oc3cc(O)cc(O)c3c(=O)c2OC2OC(COC(C)=O)C(O)C(O)C2O)ccc1O` (stereo not drawn) [AF−36, isorhamnetin 3−O−β−D−(6−acetyl)−galactopyranoside] are within error of each other in IC50: 300 ± 23 µM for the first, 326 ± 13 µM for the second.
